Laboratory results as given in US9738768B2, “Blowing agent composition of hydrochlorofluoroolefin” (Arkema Inc., priority 2007, dated 2017).

How the values were obtained:
[1] = tested on: Salmonella typhimurium tester strains (TA1535, TA1537, TA98, TA100); test: Ames bacterial reverse mutation assay, vapor-phase exposure by desiccator methodology; type: cell-based; conditions: for mutagenicity / toxicity of the single isomer as concluded from the Ames tests of mixture and purified material: conclusion from comparing the 71.2/28.5 trans/cis mixture with the 96.5 wt % trans material
Procedure: (§1) Toxological testing was undertaken as part of the evaluation of HCFO-1233zd as a blowing agent. Ames testing was performed on a blend of trans- and cis- HCFO-1233zd and purified trans- HCFO-1233zd. The Ames test is a study designed to determine if a material can interact with DNA and cause point mutations, i.e. to determine if a material is mutagenic. Many carcinogenic materials are also mutagenic and this assay is often used as a quick screen for potential to cause an adverse effect on genetic material. It utilizes several strains of bacteria (Salmonella typhimurium and E. coli) and is often routinely included when developing the toxicology profile of a substance. If a substance substantially increases the mutation rate in the bacterial tester strains, the study result is defined as positive and the test substance is considered to be mutagenic.
(§2) The purpose of the study was to evaluate the mutagenic potential of the test article vapor by measuring it ability to induce reverse mutations at selected loci of several stains of Salmonella typhimurium and at the tryptophan locus of Escherichia coli strains WP2 uvrA in the presence and absence of Aroclor-induced rat liver S9. The test system was exposed to the test article via desiccator methodology. For each replicate plating, the mean and standard deviation of the number of revertants per plate were calculated and reported. Negative and positive controls were also run.
(§3) For the test article to be evaluated positive, it must cause a dose-related increase in the mean revertants per plate of at least one tester strain over a minimum of two increasing concentrations of test article. Data for tester strains TA1535 and TA1537 were judged positive if the increase in mean revertants at the peak of the dose response is equal to or judged greater than 3.0-times the mean vehicle control value. Data sets for tester strains TA98, TA100 and WP2 uvrA were judged positive if the increase in mean revertants at the peak of the dose response is equal to or greater than 2.0-times the mean vehicle control value.

[2] = tested on: Escherichia coli strains WP2 uvrA (tryptophan locus); test: as above; type: cell-based; conditions: E. coli WP2 uvrA
Procedure: as §1, §2, §3

SMILES	mutagenicity / toxicity of the single isomer as concluded from the Ames tests of mixture and purified material [1]	Ames test result (mutagenic response) ([1]; Salmonella typhimurium tester strains, presence and absence of Aroclor-induced rat liver S9)	toxicity to tester strains ([1]; Salmonella typhimurium tester strains, with and without S9)	Ames test result (mutagenic response) ([2]; presence and absence of Aroclor-induced rat liver S9)	toxicity to tester strains ([2]; with and without S9)	mutagenicity / toxicity of the single isomer as concluded from the Ames tests of mixture and purified material ([1]; listed as trans isomer)
FC(F)(F)/C=C\Cl [cis-isomer, cis-1-chloro-3,3,3-trifluoropropene]	active mutagenic agent					
FC(F)(F)C=CCl [purified material, 1-chloro-3,3,3-trifluoropropene]		did not cause a positive mutagenic response	No toxicity was observed	did not cause a positive mutagenic response	No toxicity was observed	
FC(F)(F)/C=C/Cl [trans-isomer of 1-chloro-3,3,3-trifluoropropene, trans-1-chloro-3,3,3-trifluoropropene]	less toxic					significantly lower genotoxicity
